Assay results: patent US20130130922A1, “ANALYSIS OF METHYLATION SITES” (Centre for Addiction and Mental Health, priority 2011, published 2013)

Tested on: Control-Sss reference system (specific and nonspecific DNA fragments)
Assay: mTAG labeling, biotinylation, capture on streptavidin beads and multiplex real-time PCR of Control-Sss reference system
Details: 50 ng Control-Sss mixed with 300 ng sonicated human brain genomic DNA; 50 μM Ado-6-amine; 1450 nM enzyme; 37° C. 30 min

Substance: SssI (Q142A/N370A): His6-tagged M.SssI C5 DNA methyltransferase (CG target site) double-alanine mutant Q142A/N370A
- level of nonspecific probe found: less than 1%
- yield of captured specific probe containing two SssI target sites: ~80%
